Results reported in the supplement of paper PMC4862054.

System: CAL-120
Experiment: drug sensitivity score (DSS), CellTox Green (DSS (AUC-based score)); higher = stronger drug effect (viability inhibition or cytotoxicity); extreme values may be limits of the assay
Settings: incubation time: 72 h
How it was run: (§1)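 Compound was dispensed into 384-well plates at 5 concentrations in 10-fold steps spanning a 10,000-fold range chosen for each compound, and 20 µl of breast cancer cell suspension was added before 72 h of incubation. CellTox Green fluorescence was read at 485/520 nm, followed by CellTiter-Glo luminescence after 10 min at room temperature. Values on each plate were normalised to 0.1 % DMSO and a positive kill control. The drug sensitivity score came from the area under the fitted dose-response curve.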

Question: C#Cc1cccc(Nc2ncnc3cc(OCCOC)c(OCCOC)cc23)c1 [Erlotinib] was tested. Which drug sensitivity score did it give?
Answer: 0

Question: O=P1(NCCCl)OCCCN1CCCl (configuration not stated) [Ifosfamide] was tested. Which drug sensitivity score did it give?
Answer: 0

Question: How did the drug sensitivity score turn out when Cn1c(Nc2ccc(C(F)(F)F)cc2)nc2cc(Oc3ccnc(-c4ncc(C(F)(F)F)[nH]4)c3)ccc21 [RAF265] was run?
Answer: 0

Question: With Cc1ccc(C(=O)N(CCCN)[C@@H](c2oc3cc(Cl)ccc3c(=O)c2Cc2ccccc2)C(C)C)cc1 as the compound, how does the drug sensitivity score read?
Answer: 0

Question: How did the drug sensitivity score turn out when Cn1c(CCCC(=O)O)nc2cc(N(CCCl)CCCl)ccc21 [Bendamustine] was run?
Answer: 0

Question: How did the drug sensitivity score turn out when O=C1CCC(N2C(=O)c3ccccc3C2=O)C(=O)N1 (configuration not stated) [Thalidomide] was run?
Answer: 0

Question: How did the drug sensitivity score turn out when O=C(O)c1ccc(-c2c[nH]c3ncc(-c4ccccc4)cc23)cc1C1CCCC1 was run?
Answer: 0

Question: For C=C(c1ccc(C(=O)O)cc1)c1cc2c(cc1C)C(C)(C)CCC2(C)C [Bexarotene], which drug sensitivity score is on record?
Answer: 0

System: HDQ-P1
Experiment: as above
Settings: incubation time: 72 h
How it was run: as §1

Question: With Oc1nc(-c2ccc(C(F)(F)F)cc2)nc2c1CSCC2 [XAV-939] as the compound, how does the drug sensitivity score read?
Answer: 3.77

Question: NC(=O)Nc1cc(-c2cccc(F)c2)sc1C(=O)N[C@H]1CCCNC1 [AZD7762] was tested. Which drug sensitivity score did it give?
Answer: 0

Question: N.N.[Cl][Pt][Cl] [Cisplatin] was tested. Which drug sensitivity score did it give?
Answer: 0

Question: With CN[C@@H]1C[C@H]2O[C@@](C)([C@@H]1OC)n1c3ccccc3c3c4c(c5c6ccccc6n2c5c31)C(=O)N[C@H]4O [UCN-01] as the compound, how does the drug sensitivity score read?
Answer: 14.7

Question: For C[C@@H](Oc1cc(-c2cnn(C3CCNCC3)c2)cnc1N)c1c(Cl)ccc(F)c1Cl [Crizotinib], which drug sensitivity score is on record?
Answer: 0.784

Question: Which drug sensitivity score does the source give for CC1(C)NC(=O)N(c2ccc([N+](=O)[O-])c(C(F)(F)F)c2)C1=O [Nilutamide] here?
Answer: 0

Question: Which drug sensitivity score does the source give for CNCc1ccc(-c2[nH]c3cc(F)cc4c3c2CCNC4=O)cc1 [Rucaparib] here?
Answer: 0

Question: Which drug sensitivity score does the source give for C[C@]12CC[C@@H]3c4ccc(O)cc4C[C@@H](CCCCCCCCC[S+]([O-])CCCC(F)(F)C(F)(F)F)[C@H]3[C@@H]1CC[C@@H]2O (some centres not stated) [Fulvestrant] here?
Answer: 0

Question: For CC(C)Cn1cnc2c(N)nc3ccccc3c21 [Imiquimod], which drug sensitivity score is on record?
Answer: 1.63

Question: Which drug sensitivity score does the source give for C#Cc1cccc(Nc2ncnc3cc(OCCOC)c(OCCOC)cc23)c1 [Erlotinib] here?
Answer: 0

Question: For O=P1(NCCCl)OCCCN1CCCl (configuration not stated) [Ifosfamide], which drug sensitivity score is on record?
Answer: 0

Question: Which drug sensitivity score does the source give for Cn1c(Nc2ccc(C(F)(F)F)cc2)nc2cc(Oc3ccnc(-c4ncc(C(F)(F)F)[nH]4)c3)ccc21 [RAF265] here?
Answer: 0

Question: With Cn1c(CCCC(=O)O)nc2cc(N(CCCl)CCCl)ccc21 [Bendamustine] as the compound, how does the drug sensitivity score read?
Answer: 0

Question: Which drug sensitivity score does the source give for O=C(O)c1ccc(-c2c[nH]c3ncc(-c4ccccc4)cc23)cc1C1CCCC1 here?
Answer: 0

Question: With C=C(c1ccc(C(=O)O)cc1)c1cc2c(cc1C)C(C)(C)CCC2(C)C [Bexarotene] as the compound, how does the drug sensitivity score read?
Answer: 0

System: BT-474
Experiment: as above
Settings: incubation time: 72 h
How it was run: as §1

Question: Oc1nc(-c2ccc(C(F)(F)F)cc2)nc2c1CSCC2 [XAV-939] was tested. Which drug sensitivity score did it give?
Answer: 0

Question: NC(=O)Nc1cc(-c2cccc(F)c2)sc1C(=O)N[C@H]1CCCNC1 [AZD7762] was tested. Which drug sensitivity score did it give?
Answer: 0

Question: For N.N.[Cl][Pt][Cl] [Cisplatin], which drug sensitivity score is on record?
Answer: 0

Question: How did the drug sensitivity score turn out when CN[C@@H]1C[C@H]2O[C@@](C)([C@@H]1OC)n1c3ccccc3c3c4c(c5c6ccccc6n2c5c31)C(=O)N[C@H]4O [UCN-01] was run?
Answer: 7.59

Question: For C[C@@H](Oc1cc(-c2cnn(C3CCNCC3)c2)cnc1N)c1c(Cl)ccc(F)c1Cl [Crizotinib], which drug sensitivity score is on record?
Answer: 0

Question: With CC1(C)NC(=O)N(c2ccc([N+](=O)[O-])c(C(F)(F)F)c2)C1=O [Nilutamide] as the compound, how does the drug sensitivity score read?
Answer: 0

Question: CNCc1ccc(-c2[nH]c3cc(F)cc4c3c2CCNC4=O)cc1 [Rucaparib] was tested. Which drug sensitivity score did it give?
Answer: 0

Question: For C[C@]12CC[C@@H]3c4ccc(O)cc4C[C@@H](CCCCCCCCC[S+]([O-])CCCC(F)(F)C(F)(F)F)[C@H]3[C@@H]1CC[C@@H]2O (some centres not stated) [Fulvestrant], which drug sensitivity score is on record?
Answer: 0

Question: How did the drug sensitivity score turn out when CC(C)Cn1cnc2c(N)nc3ccccc3c21 [Imiquimod] was run?
Answer: 0

Question: C#Cc1cccc(Nc2ncnc3cc(OCCOC)c(OCCOC)cc23)c1 [Erlotinib] was tested. Which drug sensitivity score did it give?
Answer: 0.507

Question: With O=P1(NCCCl)OCCCN1CCCl (configuration not stated) [Ifosfamide] as the compound, how does the drug sensitivity score read?
Answer: 0

Question: For Cn1c(Nc2ccc(C(F)(F)F)cc2)nc2cc(Oc3ccnc(-c4ncc(C(F)(F)F)[nH]4)c3)ccc21 [RAF265], which drug sensitivity score is on record?
Answer: 0

Question: With Cc1ccc(C(=O)N(CCCN)[C@@H](c2oc3cc(Cl)ccc3c(=O)c2Cc2ccccc2)C(C)C)cc1 as the compound, how does the drug sensitivity score read?
Answer: 0

Question: Which drug sensitivity score does the source give for Cn1c(CCCC(=O)O)nc2cc(N(CCCl)CCCl)ccc21 [Bendamustine] here?
Answer: 0

Question: For O=C1CCC(N2C(=O)c3ccccc3C2=O)C(=O)N1 (configuration not stated) [Thalidomide], which drug sensitivity score is on record?
Answer: 0

Question: Which drug sensitivity score does the source give for O=C(O)c1ccc(-c2c[nH]c3ncc(-c4ccccc4)cc23)cc1C1CCCC1 here?
Answer: 0

Question: With C=C(c1ccc(C(=O)O)cc1)c1cc2c(cc1C)C(C)(C)CCC2(C)C [Bexarotene] as the compound, how does the drug sensitivity score read?
Answer: 0

System: MDA-MB-468
Experiment: as above
Settings: incubation time: 72 h
How it was run: as §1

Question: With Oc1nc(-c2ccc(C(F)(F)F)cc2)nc2c1CSCC2 [XAV-939] as the compound, how does the drug sensitivity score read?
Answer: 0

Question: With NC(=O)Nc1cc(-c2cccc(F)c2)sc1C(=O)N[C@H]1CCCNC1 [AZD7762] as the compound, how does the drug sensitivity score read?
Answer: 6.89

Question: How did the drug sensitivity score turn out when CN[C@@H]1C[C@H]2O[C@@](C)([C@@H]1OC)n1c3ccccc3c3c4c(c5c6ccccc6n2c5c31)C(=O)N[C@H]4O [UCN-01] was run?
Answer: 0

Question: With C[C@@H](Oc1cc(-c2cnn(C3CCNCC3)c2)cnc1N)c1c(Cl)ccc(F)c1Cl [Crizotinib] as the compound, how does the drug sensitivity score read?
Answer: 0

Question: How did the drug sensitivity score turn out when CC1(C)NC(=O)N(c2ccc([N+](=O)[O-])c(C(F)(F)F)c2)C1=O [Nilutamide] was run?
Answer: 0

Question: CNCc1ccc(-c2[nH]c3cc(F)cc4c3c2CCNC4=O)cc1 [Rucaparib] was tested. Which drug sensitivity score did it give?
Answer: 10.6

Question: How did the drug sensitivity score turn out when CC(C)Cn1cnc2c(N)nc3ccccc3c21 [Imiquimod] was run?
Answer: 3.54
